From ChEMBL document CHEMBL5442175, “EUbOPEN Chemogenomics Library - PDSP Secondary Binding” (2024)
pKi: −log10 of the molar value.

Key:
[1] = target: 5-hydroxytryptamine receptor 1D (Homo sapiens, UniProt P28221); test: (§1) PDSP Secondary Binding target: HTR1D - Compounds are tested at 10 uM concentration, plate are incubated at room temperature in the dark for 90 minutes. Reaction are stopped by vacuum filtration onto 0.3% polyethyleneimine soaked filter mats using Filtermate harvester. Scintillation cocktail is then melted onto microwave-dried filters on a hot plate and the radio activity is counted in Microbia counter.
[2] = target: Sigma intracellular receptor 2 (Homo sapiens, UniProt Q5BJF2); test: as §1, with “TMEM97” for “HTR1D”
D(3) dopamine receptor = D(3) dopamine receptor (Homo sapiens, UniProt P35462); test: as §1, with “DRD3” for “HTR1D”
[3] = target: 5-hydroxytryptamine receptor 5A (Homo sapiens, UniProt P47898); test: as §1, with “HTR5A” for “HTR1D”
[4] = target: 5-hydroxytryptamine receptor 2B (Homo sapiens, UniProt P41595); test: as §1, with “HTR2B” for “HTR1D”
[5] = target: Beta-2 adrenergic receptor (Homo sapiens, UniProt P07550); test: as §1, with “ADRB2” for “HTR1D”
[6] = target: Sigma non-opioid intracellular receptor 1 (Homo sapiens, UniProt Q99720); test: as §1, with “SIGMAR1” for “HTR1D”
[7] = target: 5-hydroxytryptamine receptor 2A (Homo sapiens, UniProt P28223); test: as §1, with “HTR2A” for “HTR1D”
D(4) dopamine receptor = target: T1, D(4) dopamine receptor (Homo sapiens, UniProt P21917); test: as §1, with “DRD4” for “HTR1D”
T1 sequence (P21917 whole entry): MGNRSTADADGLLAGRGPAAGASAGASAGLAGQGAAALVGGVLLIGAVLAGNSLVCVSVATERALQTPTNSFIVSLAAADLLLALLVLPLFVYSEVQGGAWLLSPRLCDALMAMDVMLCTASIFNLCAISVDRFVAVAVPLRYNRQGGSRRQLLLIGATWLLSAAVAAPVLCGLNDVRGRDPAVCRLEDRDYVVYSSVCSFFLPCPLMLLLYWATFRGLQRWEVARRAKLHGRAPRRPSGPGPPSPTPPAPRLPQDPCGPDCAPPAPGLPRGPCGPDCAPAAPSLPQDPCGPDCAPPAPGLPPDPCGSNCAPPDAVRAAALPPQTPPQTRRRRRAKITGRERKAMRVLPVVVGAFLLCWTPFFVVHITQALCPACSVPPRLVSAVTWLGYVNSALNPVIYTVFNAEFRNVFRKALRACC

[8] = target: Sodium-dependent noradrenaline transporter (Homo sapiens, UniProt P23975); test: as §1, with “SLC6A2” for “HTR1D”
[9] = target: Sodium-dependent serotonin transporter (Homo sapiens, UniProt P31645); test: as §1, with “SLC6A4” for “HTR1D”
[10] = target: 5-hydroxytryptamine receptor 7 (Homo sapiens, UniProt P34969); test: as §1, with “HTR7” for “HTR1D”
[11] = target: T2, 5-hydroxytryptamine receptor 2C (Homo sapiens, UniProt P28335); test: as §1, with “HTR2C” for “HTR1D”
T2 sequence (P28335 whole entry): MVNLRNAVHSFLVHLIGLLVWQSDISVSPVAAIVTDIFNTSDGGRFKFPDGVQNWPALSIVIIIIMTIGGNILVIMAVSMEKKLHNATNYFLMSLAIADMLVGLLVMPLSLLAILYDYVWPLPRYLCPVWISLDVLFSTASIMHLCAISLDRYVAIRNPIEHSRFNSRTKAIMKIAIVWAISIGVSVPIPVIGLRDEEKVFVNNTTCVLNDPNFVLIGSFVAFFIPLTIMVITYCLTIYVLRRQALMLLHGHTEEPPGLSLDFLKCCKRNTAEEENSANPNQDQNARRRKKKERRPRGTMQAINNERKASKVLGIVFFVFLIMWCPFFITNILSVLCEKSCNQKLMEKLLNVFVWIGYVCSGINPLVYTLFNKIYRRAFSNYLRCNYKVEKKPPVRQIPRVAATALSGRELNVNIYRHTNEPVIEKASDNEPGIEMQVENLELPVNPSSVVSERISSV

D(2) dopamine receptor = D(2) dopamine receptor (Homo sapiens, UniProt P14416); test: as §1, with “DRD2” for “HTR1D”
[12] = target: T3, Alpha-2A adrenergic receptor (Homo sapiens, UniProt P08913); test: as §1, with “ADRA2A” for “HTR1D”
T3 sequence (P08913 whole entry): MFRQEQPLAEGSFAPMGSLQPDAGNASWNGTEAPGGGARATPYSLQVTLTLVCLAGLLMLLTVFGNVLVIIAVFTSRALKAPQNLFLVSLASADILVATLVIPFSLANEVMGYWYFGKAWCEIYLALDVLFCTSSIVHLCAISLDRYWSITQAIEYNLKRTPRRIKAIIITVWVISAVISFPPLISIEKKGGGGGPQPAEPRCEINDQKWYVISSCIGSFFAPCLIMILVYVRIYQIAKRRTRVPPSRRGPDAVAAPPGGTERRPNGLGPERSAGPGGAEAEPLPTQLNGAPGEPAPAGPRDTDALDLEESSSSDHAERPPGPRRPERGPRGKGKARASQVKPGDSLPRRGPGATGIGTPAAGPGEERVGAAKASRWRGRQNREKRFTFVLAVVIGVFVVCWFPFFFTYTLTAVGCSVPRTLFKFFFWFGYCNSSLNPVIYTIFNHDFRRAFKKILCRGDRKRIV

[13] = target: 5-hydroxytryptamine receptor 1E (Homo sapiens, UniProt P28566); test: as §1, with “HTR1E” for “HTR1D”
[14] = target: 5-hydroxytryptamine receptor 6 (Homo sapiens, UniProt P50406); test: as §1, with “HTR6” for “HTR1D”
[15] = target: 5-hydroxytryptamine receptor 1B (Homo sapiens, UniProt P28222); test: as §1, with “HTR1B” for “HTR1D”
[16] = target: Beta-3 adrenergic receptor (Homo sapiens, UniProt P13945); test: as §1, with “ADRB3” for “HTR1D”
Translocator protein = Translocator protein (Homo sapiens, UniProt P30536); test: as §1, with “TSPO” for “HTR1D”
[17] = target: Sodium-dependent dopamine transporter (Homo sapiens, UniProt Q01959); test: as §1, with “SLC6A3” for “HTR1D”
[18] = target: T4, Alpha-1B adrenergic receptor (Homo sapiens, UniProt P35368); test: as §1, with “ADRA1B” for “HTR1D”
T4 sequence (P35368 whole entry): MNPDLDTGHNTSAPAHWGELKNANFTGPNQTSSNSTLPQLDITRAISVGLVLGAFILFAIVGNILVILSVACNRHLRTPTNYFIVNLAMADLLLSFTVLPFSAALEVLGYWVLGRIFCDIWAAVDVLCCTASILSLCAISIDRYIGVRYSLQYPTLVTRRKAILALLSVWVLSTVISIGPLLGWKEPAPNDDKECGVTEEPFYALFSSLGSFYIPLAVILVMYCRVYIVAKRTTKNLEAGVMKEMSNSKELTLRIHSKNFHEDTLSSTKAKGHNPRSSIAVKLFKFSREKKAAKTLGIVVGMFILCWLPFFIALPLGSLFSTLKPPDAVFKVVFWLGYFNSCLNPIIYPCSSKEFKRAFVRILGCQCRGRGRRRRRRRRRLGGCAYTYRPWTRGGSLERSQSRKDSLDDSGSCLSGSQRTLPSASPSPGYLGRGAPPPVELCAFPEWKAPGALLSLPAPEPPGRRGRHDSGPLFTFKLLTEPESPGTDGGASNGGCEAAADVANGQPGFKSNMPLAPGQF

[19] = target: T5, Alpha-1A adrenergic receptor (Homo sapiens, UniProt P35348); test: as §1, with “ADRA1A” for “HTR1D”
T5 sequence (P35348 whole entry): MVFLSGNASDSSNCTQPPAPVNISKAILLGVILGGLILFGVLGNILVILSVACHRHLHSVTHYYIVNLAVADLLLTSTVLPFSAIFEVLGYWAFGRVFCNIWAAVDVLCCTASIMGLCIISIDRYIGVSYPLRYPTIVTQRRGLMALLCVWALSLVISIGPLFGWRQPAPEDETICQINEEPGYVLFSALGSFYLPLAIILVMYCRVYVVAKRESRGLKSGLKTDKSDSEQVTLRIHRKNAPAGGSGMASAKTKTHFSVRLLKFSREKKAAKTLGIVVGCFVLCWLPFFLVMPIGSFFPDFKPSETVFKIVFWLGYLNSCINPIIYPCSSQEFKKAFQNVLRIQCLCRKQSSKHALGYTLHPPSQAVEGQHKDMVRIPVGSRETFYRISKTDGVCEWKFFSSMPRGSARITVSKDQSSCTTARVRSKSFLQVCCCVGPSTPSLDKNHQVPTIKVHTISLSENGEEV

[20] = target: T6, Alpha-1D adrenergic receptor (Homo sapiens, UniProt P25100); test: as §1, with “ADRA1D” for “HTR1D”
T6 sequence (P25100 whole entry): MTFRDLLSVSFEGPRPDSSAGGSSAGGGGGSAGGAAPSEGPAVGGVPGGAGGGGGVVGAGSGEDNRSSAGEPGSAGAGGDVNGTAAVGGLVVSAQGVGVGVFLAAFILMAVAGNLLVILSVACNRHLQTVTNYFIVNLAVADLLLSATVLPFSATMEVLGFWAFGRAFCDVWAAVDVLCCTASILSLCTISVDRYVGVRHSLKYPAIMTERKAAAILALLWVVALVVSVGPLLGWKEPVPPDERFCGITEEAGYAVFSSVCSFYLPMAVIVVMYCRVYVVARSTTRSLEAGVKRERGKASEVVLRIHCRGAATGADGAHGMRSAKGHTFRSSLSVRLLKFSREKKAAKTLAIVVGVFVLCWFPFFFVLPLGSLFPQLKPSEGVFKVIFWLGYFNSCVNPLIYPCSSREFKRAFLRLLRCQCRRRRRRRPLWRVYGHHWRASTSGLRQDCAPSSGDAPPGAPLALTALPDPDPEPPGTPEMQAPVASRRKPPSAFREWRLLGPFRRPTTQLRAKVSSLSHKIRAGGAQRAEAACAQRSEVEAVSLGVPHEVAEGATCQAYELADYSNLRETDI

Sigma intracellular receptor 2, sequence (Q5BJF2 whole entry): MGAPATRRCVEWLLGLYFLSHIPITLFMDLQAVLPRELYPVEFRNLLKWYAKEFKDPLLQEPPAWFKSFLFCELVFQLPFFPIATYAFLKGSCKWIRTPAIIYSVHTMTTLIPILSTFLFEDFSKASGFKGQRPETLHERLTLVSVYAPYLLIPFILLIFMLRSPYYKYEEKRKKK
Sodium-dependent noradrenaline transporter, sequence (P23975 whole entry): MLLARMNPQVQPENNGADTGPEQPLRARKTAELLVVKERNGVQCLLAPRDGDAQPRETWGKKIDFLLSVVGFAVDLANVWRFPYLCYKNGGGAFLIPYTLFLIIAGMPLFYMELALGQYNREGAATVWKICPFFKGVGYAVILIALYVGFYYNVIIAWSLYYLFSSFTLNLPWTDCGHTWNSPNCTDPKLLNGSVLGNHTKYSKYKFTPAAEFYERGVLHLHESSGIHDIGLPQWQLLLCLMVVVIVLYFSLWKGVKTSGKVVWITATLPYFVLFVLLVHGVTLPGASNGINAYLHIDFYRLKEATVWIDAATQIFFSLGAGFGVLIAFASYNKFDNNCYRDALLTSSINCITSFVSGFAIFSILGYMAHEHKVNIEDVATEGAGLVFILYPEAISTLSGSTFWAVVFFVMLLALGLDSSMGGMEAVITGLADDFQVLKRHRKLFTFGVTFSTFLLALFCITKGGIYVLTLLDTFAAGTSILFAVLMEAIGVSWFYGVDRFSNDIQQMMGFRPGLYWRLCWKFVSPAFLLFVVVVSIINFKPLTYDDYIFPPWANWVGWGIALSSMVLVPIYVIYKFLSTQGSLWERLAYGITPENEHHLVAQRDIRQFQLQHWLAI
Beta-2 adrenergic receptor, sequence (P07550 whole entry): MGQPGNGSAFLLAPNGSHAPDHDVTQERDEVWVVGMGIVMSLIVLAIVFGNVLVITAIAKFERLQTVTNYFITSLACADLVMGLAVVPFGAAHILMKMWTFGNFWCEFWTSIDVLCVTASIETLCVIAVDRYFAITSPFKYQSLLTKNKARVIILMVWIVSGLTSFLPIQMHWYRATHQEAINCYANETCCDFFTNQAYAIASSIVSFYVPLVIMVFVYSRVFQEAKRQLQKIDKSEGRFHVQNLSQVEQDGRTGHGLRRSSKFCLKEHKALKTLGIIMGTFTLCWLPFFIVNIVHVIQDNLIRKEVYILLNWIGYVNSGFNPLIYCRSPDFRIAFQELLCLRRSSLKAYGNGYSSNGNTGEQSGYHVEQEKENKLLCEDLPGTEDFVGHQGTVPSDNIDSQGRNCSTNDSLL
5-hydroxytryptamine receptor 2A, sequence (P28223 whole entry): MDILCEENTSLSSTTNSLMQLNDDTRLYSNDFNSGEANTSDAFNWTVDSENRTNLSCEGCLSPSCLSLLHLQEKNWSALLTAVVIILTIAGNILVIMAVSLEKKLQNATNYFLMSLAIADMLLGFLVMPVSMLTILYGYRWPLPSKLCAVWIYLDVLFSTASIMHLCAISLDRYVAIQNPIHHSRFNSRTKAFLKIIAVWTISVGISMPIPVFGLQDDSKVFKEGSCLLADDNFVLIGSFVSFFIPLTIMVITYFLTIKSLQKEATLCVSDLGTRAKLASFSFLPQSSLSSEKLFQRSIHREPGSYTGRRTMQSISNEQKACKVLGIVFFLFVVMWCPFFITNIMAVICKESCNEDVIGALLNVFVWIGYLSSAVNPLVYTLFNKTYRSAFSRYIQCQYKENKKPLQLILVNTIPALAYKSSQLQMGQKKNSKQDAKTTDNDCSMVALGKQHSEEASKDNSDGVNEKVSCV
5-hydroxytryptamine receptor 5A, sequence (P47898 whole entry): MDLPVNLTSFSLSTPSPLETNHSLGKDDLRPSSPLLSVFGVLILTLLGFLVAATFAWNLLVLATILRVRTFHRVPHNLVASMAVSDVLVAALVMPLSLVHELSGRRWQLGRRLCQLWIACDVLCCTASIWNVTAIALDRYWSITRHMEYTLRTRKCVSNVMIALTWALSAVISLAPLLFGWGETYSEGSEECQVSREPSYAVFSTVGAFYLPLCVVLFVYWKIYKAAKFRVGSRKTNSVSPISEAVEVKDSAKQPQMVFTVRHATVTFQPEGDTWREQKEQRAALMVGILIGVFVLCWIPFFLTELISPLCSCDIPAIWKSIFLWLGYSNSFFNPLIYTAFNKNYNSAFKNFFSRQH
5-hydroxytryptamine receptor 1D, sequence (P28221 whole entry): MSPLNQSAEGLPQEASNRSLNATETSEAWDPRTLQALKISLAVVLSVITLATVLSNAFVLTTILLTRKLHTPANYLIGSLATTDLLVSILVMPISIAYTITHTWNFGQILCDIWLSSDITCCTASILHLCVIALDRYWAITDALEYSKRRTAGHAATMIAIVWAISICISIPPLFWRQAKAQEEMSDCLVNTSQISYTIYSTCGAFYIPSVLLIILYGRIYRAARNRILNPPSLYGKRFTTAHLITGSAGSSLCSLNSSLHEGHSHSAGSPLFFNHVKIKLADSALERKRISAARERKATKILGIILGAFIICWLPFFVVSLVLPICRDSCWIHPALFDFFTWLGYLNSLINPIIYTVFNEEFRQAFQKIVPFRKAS
5-hydroxytryptamine receptor 2B, sequence (P41595 whole entry): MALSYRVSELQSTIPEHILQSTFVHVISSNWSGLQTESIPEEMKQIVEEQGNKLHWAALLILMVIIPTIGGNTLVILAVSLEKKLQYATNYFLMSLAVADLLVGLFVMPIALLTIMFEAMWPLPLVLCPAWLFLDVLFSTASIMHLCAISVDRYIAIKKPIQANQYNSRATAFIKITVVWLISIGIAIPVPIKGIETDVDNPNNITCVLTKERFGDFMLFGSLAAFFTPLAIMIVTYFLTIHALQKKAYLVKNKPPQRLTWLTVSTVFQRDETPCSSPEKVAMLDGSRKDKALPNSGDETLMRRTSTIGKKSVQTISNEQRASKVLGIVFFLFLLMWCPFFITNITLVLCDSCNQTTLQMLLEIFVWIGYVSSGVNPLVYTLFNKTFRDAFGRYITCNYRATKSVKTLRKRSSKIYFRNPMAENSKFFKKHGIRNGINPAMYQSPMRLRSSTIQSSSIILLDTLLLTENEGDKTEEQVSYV
D(3) dopamine receptor, sequence (P35462 whole entry): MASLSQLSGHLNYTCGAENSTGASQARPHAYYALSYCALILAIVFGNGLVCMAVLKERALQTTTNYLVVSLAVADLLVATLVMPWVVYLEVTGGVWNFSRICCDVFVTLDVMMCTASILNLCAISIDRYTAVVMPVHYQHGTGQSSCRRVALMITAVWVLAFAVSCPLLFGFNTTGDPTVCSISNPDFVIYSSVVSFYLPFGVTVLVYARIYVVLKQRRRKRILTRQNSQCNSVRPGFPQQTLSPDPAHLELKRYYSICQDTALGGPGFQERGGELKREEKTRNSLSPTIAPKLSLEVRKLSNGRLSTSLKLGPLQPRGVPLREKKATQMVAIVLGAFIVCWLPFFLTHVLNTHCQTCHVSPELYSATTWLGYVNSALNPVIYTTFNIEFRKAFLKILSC
5-hydroxytryptamine receptor 6, sequence (P50406 whole entry): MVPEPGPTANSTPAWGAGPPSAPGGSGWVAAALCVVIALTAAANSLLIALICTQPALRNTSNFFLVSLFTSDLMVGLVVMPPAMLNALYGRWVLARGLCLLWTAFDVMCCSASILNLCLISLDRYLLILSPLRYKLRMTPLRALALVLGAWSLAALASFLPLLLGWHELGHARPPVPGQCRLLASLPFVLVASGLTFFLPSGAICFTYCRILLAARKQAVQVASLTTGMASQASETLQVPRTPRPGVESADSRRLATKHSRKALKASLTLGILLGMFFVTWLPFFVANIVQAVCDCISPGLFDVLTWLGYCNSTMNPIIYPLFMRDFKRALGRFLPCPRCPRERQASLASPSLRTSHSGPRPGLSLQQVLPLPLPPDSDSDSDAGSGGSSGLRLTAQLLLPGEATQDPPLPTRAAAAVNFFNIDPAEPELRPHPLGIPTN
Sodium-dependent serotonin transporter, sequence (P31645 whole entry): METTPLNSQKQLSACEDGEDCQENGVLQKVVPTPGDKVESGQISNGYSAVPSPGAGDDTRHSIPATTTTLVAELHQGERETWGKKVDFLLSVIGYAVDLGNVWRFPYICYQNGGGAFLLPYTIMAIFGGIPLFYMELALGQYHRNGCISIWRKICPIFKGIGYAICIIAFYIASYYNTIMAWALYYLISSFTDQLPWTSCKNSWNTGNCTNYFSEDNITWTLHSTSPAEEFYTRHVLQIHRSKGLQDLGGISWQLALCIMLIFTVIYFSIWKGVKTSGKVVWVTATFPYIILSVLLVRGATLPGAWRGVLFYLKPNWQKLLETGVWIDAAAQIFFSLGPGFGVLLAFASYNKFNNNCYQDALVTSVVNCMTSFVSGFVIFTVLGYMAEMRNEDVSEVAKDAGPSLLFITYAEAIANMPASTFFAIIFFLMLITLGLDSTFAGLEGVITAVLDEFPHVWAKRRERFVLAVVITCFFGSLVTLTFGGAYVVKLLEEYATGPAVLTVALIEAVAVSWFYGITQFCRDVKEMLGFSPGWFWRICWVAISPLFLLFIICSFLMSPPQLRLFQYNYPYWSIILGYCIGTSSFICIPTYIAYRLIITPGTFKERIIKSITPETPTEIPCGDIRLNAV
D(2) dopamine receptor, sequence (P14416 whole entry): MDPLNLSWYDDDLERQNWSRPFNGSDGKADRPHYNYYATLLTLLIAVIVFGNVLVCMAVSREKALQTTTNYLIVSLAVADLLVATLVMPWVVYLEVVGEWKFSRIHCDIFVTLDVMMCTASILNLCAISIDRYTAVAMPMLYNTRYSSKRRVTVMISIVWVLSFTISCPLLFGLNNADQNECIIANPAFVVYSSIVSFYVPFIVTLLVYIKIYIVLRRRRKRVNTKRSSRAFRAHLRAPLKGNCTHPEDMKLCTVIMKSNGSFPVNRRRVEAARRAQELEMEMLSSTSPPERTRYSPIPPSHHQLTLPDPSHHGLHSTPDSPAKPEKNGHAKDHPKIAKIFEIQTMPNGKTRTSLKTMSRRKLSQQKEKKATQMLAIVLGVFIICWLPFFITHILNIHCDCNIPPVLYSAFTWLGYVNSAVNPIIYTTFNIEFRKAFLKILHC

SMILES | pKi [1] | pKi [2] | pKi (D(3) dopamine receptor) | pKi [3] | pKi [4] | pKi [5] | pKi [7] | pKi [8] | pKi [9] | pKi [11] | pKi [14] | other results
CS(=O)(=O)NC[C@H]1CC[C@H](Nc2nc3c(s2)CCSc2ccccc2-3)CC1 | 5.79 | 5.76 | 6.30 | 5.98 | 6.40 | 5.12 | – | – | – | – | – | –
N#Cc1c[nH]c2c(C(=O)N3CCN(CCc4ccc(F)cc4)CC3)cccc12 [PRUVANSERIN] | 6.23 | 5.93 | – | – | 5.98 | < 5.00 | 8.58 | 5.60 | 5.96 | 5.83 | – | pKi [6]: 6.75; pKi (D(4) dopamine receptor): 6.74; pKi [10]: 5.62
NCCc1c[nH]c2ccc(C(N)=O)cc12 | – | 5.34 | – | 8.06 | – | – | – | 5.58 | – | – | 6.49 | pKi (D(2) dopamine receptor): < 5.00; pKi [12]: 5.67; pKi [13]: 6.02; pKi [15]: 7.95
CN(C)S(=O)(=O)c1ccc(NC(=S)N2CCC(C(O)(c3ccccc3)c3ccccc3)CC2)cc1 | – | 6.62 | – | – | – | 5.28 | – | – | – | – | – | pKi [16]: 5.46; pKi (Translocator protein): 6.01
CCc1cc2c(cc1CC)CC(NC[C@H](O)c1ccc(O)c3[nH]c(=O)ccc13)C2 [INDACATEROL] | – | 6.97 | 5.87 | – | – | 6.97 | 5.69 | 6.25 | 6.11 | 5.74 | < 5.00 | pKi [17]: 7.12; pKi [18]: 5.36; pKi [19]: 6.45; pKi [20]: 6.14
